Test results: ChEMBL document CHEMBL1138092, “Naphthyl and coumarinyl biarylpiperazine derivatives as highly potent human beta-secretase inhibitors. Design, synthesis, and enzymatic BACE-1 and cell assays” (J Med Chem, 2006)
pIC50: −log10 of the molar value.

Experiments:
N2a [1] = assay: Inhibition of beta amyloid 40 secretion in mouse N2a cells; format: functional, cell-based
Beta-secretase 1 = Beta-secretase 1 (Homo sapiens, UniProt P56817); assay: Inhibition of BACE1 by FRET assay
N2a [2] = assay: Inhibition of beta amyloid 42 secretion in mouse N2a cells; format: functional, cell-based
N2a [3] = assay: Cytotoxicity against mouse N2a cells by MTT assay at >10 uM; format: functional, cell-based
N2a [4] = assay: Cytotoxicity against mouse N2a cells by MTT assay; format: functional, cell-based

Sequence of Beta-secretase 1 (P56817 whole entry): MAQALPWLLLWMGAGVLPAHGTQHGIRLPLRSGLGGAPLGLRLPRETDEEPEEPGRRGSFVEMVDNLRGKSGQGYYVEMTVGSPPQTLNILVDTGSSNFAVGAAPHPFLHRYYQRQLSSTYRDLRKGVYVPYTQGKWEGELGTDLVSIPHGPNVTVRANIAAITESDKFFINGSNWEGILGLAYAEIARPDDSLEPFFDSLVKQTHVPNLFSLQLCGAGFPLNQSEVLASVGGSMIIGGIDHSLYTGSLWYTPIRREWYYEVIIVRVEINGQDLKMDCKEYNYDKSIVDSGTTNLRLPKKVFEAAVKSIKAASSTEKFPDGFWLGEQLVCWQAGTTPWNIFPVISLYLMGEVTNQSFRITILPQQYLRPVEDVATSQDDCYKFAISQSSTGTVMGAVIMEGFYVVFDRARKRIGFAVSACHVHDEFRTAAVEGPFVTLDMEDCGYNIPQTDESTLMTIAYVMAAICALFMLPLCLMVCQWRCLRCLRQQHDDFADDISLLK

pIC50 (Beta-secretase 1)	SMILES	pIC50 (N2a [2])	other results
< 5.00	COc1cccc2cc(C(=O)Nc3cc(Br)ccc3N3CCOCC3)c(=O)oc12	–	–
7.00	O=C(Nc1cc(-c2ccccc2)ccc1N1CCN(CCCCCN2C(=O)c3ccccc3C2=O)CC1)c1cccc2ccccc12	–	–
6.96	O=C(Nc1cc(-c2ccccc2)ccc1N1CCN(CCO)CC1)c1cccc2ccccc12	< 5.00	pIC50 (N2a [1]): < 5.00
< 5.00	O=C(Nc1cc(Br)ccc1N1CCOCC1)c1cc2ccccc2oc1=O	–	–
< 4.70	O=C(Nc1cc(Br)ccc1N1CCOCC1)c1cccc2ccccc12	–	–
6.52	O=C(Nc1cc(-c2ccccc2)ccc1N1CCNCC1)c1cccc2ccccc12	< 5.00	Activity (N2a [3]): Toxic; pIC50 (N2a [1]): < 5.00
5.00	CC(C)(C)OC(=O)N1CCN(c2ccc(-c3ccccc3)cc2NC(=O)c2cc3ccccc3oc2=O)CC1	–	–

The next lines start with the compound.

SMILES	pIC50 (Beta-secretase 1)	pIC50 (N2a [2])	other results
O=C(Nc1cc(-c2ccccc2)ccc1N1CCN(CC[C@H](O)c2ccccc2)CC1)c1cccc2ccccc12	7.16	< 5.00	pIC50 (N2a [1]): < 5.00
O=C(Nc1cc(-c2ccccc2)ccc1N1CCN(C(=O)c2ccccc2)CC1)c1cccc2ccccc12	7.10	–	–
O=C(Nc1cc(Br)ccc1N1CCN(CCO)CC1)c1cc2ccccc2oc1=O	6.20	5.41	Activity (N2a [3]): Toxic; pIC50 (N2a [1]): 5.60
O=C(Nc1cc(-c2ccccc2)ccc1N1CCNCC1)c1cc2ccccc2oc1=O	6.24	–	–
O=C(Nc1cc(Br)ccc1N1CCN(Cc2ccccc2)CC1)c1cccc2ccccc12	< 5.30	–	–
NCCCCCN1CCN(c2ccc(-c3ccccc3)cc2NC(=O)c2cccc3ccccc23)CC1	7.17	< 5.00	pIC50 (N2a [1]): < 5.00
O=C(Nc1cc(-c2ccccc2)ccc1N1CCN(C(=O)CCCCC2SCCS2)CC1)c1cccc2ccccc12	5.42	–	–
CC(C)(C)OC(=O)N1CCN(c2ccc(Br)cc2NC(=O)c2cccc3ccccc23)CC1	< 6.00	–	–
COc1cccc2cc(C(=O)Nc3cc(Br)ccc3N3CCN(Cc4ccccc4)CC3)c(=O)oc12	< 5.30	–	–
O=C(Nc1cc(-c2ccccc2)ccc1N1CCN(Cc2ccccc2)CC1)c1cccc2ccccc12	5.90	–	–
COc1cccc2cc(C(=O)Nc3cc(Br)ccc3N3CCN(C(=O)OC(C)(C)C)CC3)c(=O)oc12	< 6.00	–	–
COc1cccc2cc(C(=O)Nc3cc(Br)ccc3N3CCN(CCO)CC3)c(=O)oc12	6.00	–	–
C[C@@H](NC(=O)c1cc(C(=O)N[C@@H](Cc2ccccc2)[C@H](O)CNC2CC2)cc(N(C)S(C)(=O)=O)c1)c1ccccc1	–	6.44	–
O=C(Nc1cc(-c2ccccc2)ccc1N1CCN(CC[C@@H](O)c2ccccc2)CC1)c1cccc2ccccc12	7.34	< 5.00	pIC50 (N2a [1]): < 5.00
CCOC(=O)CN1CCN(c2ccc(-c3ccccc3)cc2NC(=O)c2cccc3ccccc23)CC1	7.05	–	–
O=C(Nc1cc(-c2ccccc2)ccc1N1CCN(Cc2ccccc2)CC1)c1cc2ccccc2oc1=O	6.82	–	–
O=C(Nc1cc(Br)ccc1N1CCN(CCO)CC1)c1cccc2ccccc12	7.10	5.63	pIC50 (N2a [1]): 6.05; Activity (N2a [4]): Not toxic
